According to patent publication US9833451B2 (priority 2007, dated 2017):
Counter-ions that a name gives are not always drawn. Like-named read-outs stand apart in the source and are kept apart here.

Tests used:
clinical = conditions: for Concentration equivalent to peak plasma concentration (Cmax): human plasma; for Cmax: human, in vivo
From the text: The inhaled doses represent the expected systemic delivered dose and were estimated from the fine particle dose delivered ex-actuator.

[1] = pulmonary delivery; cited from earlier work
[2] = cited from earlier work
[3] = target: Serotonin receptor subtype 3 (Homo sapiens, UniProt P46098); conditions: read-out: Affinity IC50; cited from earlier work
[4] = target: Dopaminergic receptor subtype D3 (Homo sapiens, UniProt P35462); conditions: read-out: Affinity IC50; cited from earlier work
D2 receptor = D2 receptor (Homo sapiens, UniProt P14416); test: Radioligand receptor binding at concentrations equivalent to Cmax
From the text: “(h)” represents cloned human receptor subtypes and “NS” indicates non-specific binding.
(§1) Table 2 presents in vitro concentrations equivalent to Cmax.

muscarinic (M) receptors = conditions: cited from earlier work
[5] = test system: migraine pain in subjects; test: Relief from migraine pain after inhaled DHE (FIG. 1); type: in vivo, human; conditions: administration giving the two lower peak plasma profiles of FIG. 2
[6] = target: Serotonin receptor subtype 1B (Homo sapiens, UniProt P28222); conditions: read-out: Affinity IC50; cited from earlier work
[7] = target: Adrenergic receptor subtype β1 (Homo sapiens, UniProt P08588); conditions: read-out: Affinity IC50; cited from earlier work
[8] = target: Serotonin receptor subtype 1E (Homo sapiens, UniProt P28566); conditions: read-out: Affinity IC50; cited from earlier work
[9] = target: Serotonin receptor subtype 1F (Homo sapiens, UniProt P30939); conditions: read-out: Affinity IC50; cited from earlier work
[10] = target: Serotonin receptor subtype 2C (Homo sapiens, UniProt P28335); conditions: read-out: Affinity IC50; cited from earlier work
[11] = target: Dopaminergic receptor subtype D4 (Homo sapiens, UniProt P21917); conditions: read-out: Affinity IC50; cited from earlier work
[12] = target: Serotonin receptor subtype 1A (Homo sapiens, UniProt P08908); conditions: read-out: Affinity IC50; cited from earlier work
5-HT3 receptors [13] = target: T1, 5-HT3 receptors (Homo sapiens, UniProt P46098); test: Radioligand receptor binding at concentrations equivalent to Cmax; conditions: all DHE delivery routes investigated, <20% classed as inactive
From the text: (§2) “(h)” represents cloned human receptor subtypes.
as §1

5-HT1B = test: as above
From the text: as §2, §1

5-HT1D receptors = 5-HT1D receptors (Homo sapiens, UniProt P28221); test: as above; conditions: following inhalation, compared with IV
From the text: as §2, §1

5-HT3 receptors [14] = target: T1, 5-HT3 receptors; test: Functional assays at 5-HT3 receptors; type: biochemical
From the text: 5-HT3 receptors are known to be implicated in nausea. Antagonists at these receptors, such as ondansetron and granisetron prevent chemotherapy-induced nausea and vomiting.

[15] = target: Dopaminergic receptor subtype D2 (Homo sapiens, UniProt P14416); conditions: read-out: Affinity IC50; cited from earlier work
5-HT1B receptors = 5-HT1B receptors (Homo sapiens, UniProt P28222); test: Selective agonism at various concentrations of DHE (FIG. 5); type: biochemical; conditions: 5 μm control, 77.6 nM (IV Cmax), 6.25 nM (4 inhalations Cmax), 0.25 nM
From the text: (§3) Agonists of 5-HT1B subtype receptors are known to be useful in the treatment of migraine and associated symptoms. 5-HT2B receptors are known to play a triggering role in the onset of migraine.

5-HT2B receptors = 5-HT2B receptors (Homo sapiens, UniProt P41595); test: as above; type: biochemical; conditions: orally-inhaled DHE concentrations (6.25 nM at Cmax of 4 inhalations)
From the text: as §3

[16] = target: Adrenergic receptor subtype α1a (Homo sapiens, UniProt P35348); conditions: read-out: Affinity IC50; cited from earlier work
[17] = target: Serotonin receptor subtype 5; conditions: read-out: Affinity IC50; cited from earlier work
[18] = target: Serotonin receptor subtype 1D (Homo sapiens, UniProt P28221); conditions: read-out: Affinity IC50; cited from earlier work
[19] = target: Adrenergic receptor subtype α1b (Homo sapiens, UniProt P35368); conditions: read-out: Affinity IC50; cited from earlier work
[20] = target: Adrenergic receptor subtype β3 (Homo sapiens, UniProt P13945); conditions: read-out: Affinity IC50; cited from earlier work
[21] = given subcutaneously at a concentration of only 1.5 mM; cited from earlier work
[22] = Side effects in clinical study of IV versus inhaled DHE; type: in vivo, human
From the text: The inventors have discovered that these slightly delayed, lower peak pharmacokinetic profiles are associated with minimized side effects.

[23] = after inhalable administration of DHE

T1 sequence (P46098 24-478): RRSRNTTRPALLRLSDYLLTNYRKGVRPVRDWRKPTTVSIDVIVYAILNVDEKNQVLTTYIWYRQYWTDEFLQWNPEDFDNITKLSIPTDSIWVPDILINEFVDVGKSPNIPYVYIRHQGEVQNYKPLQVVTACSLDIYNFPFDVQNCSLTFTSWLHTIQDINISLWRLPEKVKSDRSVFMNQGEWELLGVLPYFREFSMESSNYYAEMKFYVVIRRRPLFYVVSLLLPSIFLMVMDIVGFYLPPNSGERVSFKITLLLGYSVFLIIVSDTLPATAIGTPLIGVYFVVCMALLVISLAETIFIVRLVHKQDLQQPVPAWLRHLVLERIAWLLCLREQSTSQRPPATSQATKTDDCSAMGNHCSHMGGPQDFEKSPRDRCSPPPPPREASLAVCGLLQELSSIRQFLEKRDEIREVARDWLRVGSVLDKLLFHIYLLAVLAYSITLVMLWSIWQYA
D2 receptor, sequence (P14416 whole entry): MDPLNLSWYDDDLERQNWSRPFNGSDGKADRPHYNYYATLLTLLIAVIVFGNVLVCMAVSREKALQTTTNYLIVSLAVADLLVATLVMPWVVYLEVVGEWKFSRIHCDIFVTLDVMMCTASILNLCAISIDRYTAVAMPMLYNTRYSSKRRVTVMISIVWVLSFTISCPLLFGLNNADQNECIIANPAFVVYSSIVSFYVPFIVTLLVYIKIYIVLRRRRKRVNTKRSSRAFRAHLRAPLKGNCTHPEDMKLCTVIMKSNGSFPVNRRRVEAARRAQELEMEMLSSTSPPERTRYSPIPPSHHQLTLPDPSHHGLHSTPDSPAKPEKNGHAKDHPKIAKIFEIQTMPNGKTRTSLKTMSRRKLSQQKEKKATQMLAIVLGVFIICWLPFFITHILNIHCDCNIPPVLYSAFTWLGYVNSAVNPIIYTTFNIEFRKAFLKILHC
Serotonin receptor subtype 1A, sequence (P08908 whole entry): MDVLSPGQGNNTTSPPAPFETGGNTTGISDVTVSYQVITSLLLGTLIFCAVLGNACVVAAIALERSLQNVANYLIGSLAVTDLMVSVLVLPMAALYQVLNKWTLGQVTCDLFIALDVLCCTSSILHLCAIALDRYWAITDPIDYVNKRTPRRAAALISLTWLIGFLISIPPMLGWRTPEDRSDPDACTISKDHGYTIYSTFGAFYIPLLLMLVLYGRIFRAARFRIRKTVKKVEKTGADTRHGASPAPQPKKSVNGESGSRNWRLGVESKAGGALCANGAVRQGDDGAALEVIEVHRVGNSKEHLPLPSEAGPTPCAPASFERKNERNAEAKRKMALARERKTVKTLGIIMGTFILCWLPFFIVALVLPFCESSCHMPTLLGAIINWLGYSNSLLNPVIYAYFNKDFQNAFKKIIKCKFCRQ
Serotonin receptor subtype 3, sequence (P46098 24-478): as the sequence (P46098 24-478) above
Adrenergic receptor subtype α1a, sequence (P35348 whole entry): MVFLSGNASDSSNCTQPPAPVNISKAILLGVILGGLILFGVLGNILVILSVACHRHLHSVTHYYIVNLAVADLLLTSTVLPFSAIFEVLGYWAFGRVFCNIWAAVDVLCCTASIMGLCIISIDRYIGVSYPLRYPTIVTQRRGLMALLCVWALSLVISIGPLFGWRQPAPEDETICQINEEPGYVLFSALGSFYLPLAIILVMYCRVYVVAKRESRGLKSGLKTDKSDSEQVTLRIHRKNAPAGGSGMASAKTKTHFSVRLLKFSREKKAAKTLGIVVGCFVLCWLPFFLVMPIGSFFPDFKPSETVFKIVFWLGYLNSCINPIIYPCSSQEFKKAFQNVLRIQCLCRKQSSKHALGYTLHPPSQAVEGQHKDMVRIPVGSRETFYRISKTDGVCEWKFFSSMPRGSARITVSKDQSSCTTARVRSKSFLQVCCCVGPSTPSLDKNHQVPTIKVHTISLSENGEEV
Serotonin receptor subtype 1D, sequence (P28221 whole entry): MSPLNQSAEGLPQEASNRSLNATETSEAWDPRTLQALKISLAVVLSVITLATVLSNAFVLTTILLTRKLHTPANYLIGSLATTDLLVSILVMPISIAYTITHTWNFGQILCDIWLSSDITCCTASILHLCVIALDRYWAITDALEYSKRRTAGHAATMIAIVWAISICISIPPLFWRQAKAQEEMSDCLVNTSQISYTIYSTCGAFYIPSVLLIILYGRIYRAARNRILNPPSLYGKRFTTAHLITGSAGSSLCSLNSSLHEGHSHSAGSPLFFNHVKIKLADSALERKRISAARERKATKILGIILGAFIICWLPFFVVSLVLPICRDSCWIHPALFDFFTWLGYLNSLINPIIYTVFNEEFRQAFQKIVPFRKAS
5-HT1D receptors, sequence (P28221 whole entry): as above
Dopaminergic receptor subtype D2, sequence (P14416 whole entry): as the sequence (P14416 whole entry) above
Adrenergic receptor subtype α1b, sequence (P35368 whole entry): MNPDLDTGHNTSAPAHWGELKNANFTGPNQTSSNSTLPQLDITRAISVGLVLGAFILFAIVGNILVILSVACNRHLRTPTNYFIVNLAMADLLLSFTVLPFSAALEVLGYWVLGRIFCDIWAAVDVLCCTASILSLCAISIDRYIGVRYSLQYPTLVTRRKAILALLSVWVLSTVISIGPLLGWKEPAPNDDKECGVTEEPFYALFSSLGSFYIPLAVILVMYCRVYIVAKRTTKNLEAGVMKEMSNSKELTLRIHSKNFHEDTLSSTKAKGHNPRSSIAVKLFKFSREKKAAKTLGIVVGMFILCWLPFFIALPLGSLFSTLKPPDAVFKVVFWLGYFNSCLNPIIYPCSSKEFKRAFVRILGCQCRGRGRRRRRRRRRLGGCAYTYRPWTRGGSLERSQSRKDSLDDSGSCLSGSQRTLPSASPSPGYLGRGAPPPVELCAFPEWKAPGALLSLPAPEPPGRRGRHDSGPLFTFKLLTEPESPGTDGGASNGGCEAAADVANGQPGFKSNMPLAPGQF
Serotonin receptor subtype 1B, sequence (P28222 whole entry): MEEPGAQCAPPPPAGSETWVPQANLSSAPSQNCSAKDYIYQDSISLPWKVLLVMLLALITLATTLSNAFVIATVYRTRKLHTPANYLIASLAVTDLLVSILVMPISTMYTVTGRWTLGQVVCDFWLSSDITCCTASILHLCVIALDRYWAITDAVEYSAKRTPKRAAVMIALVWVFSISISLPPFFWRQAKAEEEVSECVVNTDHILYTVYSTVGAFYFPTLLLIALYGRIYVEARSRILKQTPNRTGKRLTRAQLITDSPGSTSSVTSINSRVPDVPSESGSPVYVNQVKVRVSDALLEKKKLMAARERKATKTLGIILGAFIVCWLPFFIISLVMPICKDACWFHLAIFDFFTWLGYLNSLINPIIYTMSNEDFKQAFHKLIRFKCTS
5-HT1B receptors, sequence (P28222 whole entry): as above
5-HT2B receptors, sequence (P41595 whole entry): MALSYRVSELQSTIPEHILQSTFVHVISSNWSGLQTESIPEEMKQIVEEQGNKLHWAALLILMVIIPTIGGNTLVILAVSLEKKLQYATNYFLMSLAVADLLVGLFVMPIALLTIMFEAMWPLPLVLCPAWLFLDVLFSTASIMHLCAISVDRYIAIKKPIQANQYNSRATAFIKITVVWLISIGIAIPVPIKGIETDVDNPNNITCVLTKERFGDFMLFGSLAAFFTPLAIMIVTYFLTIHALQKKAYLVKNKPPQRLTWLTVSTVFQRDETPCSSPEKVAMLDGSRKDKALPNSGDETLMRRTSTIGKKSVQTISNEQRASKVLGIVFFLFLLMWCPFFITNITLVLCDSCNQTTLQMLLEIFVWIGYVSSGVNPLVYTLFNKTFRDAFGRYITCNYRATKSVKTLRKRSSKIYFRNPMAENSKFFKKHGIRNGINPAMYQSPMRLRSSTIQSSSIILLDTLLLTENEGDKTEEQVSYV
Adrenergic receptor subtype β3, sequence (P13945 whole entry): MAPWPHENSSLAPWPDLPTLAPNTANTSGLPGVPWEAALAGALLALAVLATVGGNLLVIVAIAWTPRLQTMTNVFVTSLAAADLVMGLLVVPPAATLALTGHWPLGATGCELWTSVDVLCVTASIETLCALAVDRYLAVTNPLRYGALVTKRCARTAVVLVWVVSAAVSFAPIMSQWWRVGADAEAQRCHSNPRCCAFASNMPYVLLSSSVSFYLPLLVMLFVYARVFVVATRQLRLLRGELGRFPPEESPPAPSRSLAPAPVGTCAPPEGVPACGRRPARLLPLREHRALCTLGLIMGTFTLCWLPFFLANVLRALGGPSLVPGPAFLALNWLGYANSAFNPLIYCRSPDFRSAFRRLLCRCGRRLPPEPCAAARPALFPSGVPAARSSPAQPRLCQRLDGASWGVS
Dopaminergic receptor subtype D3, sequence (P35462 whole entry): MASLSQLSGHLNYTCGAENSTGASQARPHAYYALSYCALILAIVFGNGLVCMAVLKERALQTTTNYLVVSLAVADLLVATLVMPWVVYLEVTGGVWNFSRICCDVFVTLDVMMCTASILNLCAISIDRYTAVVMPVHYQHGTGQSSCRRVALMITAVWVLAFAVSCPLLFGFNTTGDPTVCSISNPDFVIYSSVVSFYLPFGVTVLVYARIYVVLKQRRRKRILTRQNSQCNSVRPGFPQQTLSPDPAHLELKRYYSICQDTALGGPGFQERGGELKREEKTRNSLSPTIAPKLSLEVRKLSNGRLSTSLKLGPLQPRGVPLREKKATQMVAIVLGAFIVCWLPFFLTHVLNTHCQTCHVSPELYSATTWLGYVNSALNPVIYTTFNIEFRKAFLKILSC
Serotonin receptor subtype 1F, sequence (P30939 whole entry): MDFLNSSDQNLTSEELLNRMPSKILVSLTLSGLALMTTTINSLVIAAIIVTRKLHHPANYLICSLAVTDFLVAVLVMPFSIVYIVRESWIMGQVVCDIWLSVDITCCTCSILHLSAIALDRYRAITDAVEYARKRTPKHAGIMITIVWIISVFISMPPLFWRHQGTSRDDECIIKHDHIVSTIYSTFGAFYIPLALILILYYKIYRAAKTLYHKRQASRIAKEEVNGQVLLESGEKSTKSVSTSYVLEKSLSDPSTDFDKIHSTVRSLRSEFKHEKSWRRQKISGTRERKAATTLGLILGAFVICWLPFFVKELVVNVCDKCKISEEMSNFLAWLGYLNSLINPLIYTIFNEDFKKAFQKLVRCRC

Question: Which “Concentration equivalent to peak plasma concentration (Cmax)” value (“Concentration equivalent” below) (clinical; after DHE 0.44 mg inhaled) does the source give for `CN1C[C@H](C(=O)N[C@]2(C)O[C@@]3(O)[C@@H]4CCC(O)N4C(=O)[C@H](Cc4ccccc4)N3C2=O)C[C@@H]2c3cccc4[nH]cc(c34)C[C@H]21` (stereo partly drawn) [8′-OH Dihydroergotamine] here?
Answer: 0.058 ng/mL

Question: What about the “Concentration equivalent” value (clinical; after DHE 0.88 mg inhaled) of the same compound?
Answer: 0.149 ng/mL

Question: What about the “Concentration equivalent” value (clinical; after DHE 1 mg IV (infusion over 3 minutes)) of the same compound?
Answer: 0.378 ng/mL

Question: What about the “Tmax of primary metabolite in circulating plasma” value (clinical; [23]) of the same compound?
Answer: less than 90 minutes

Question: And the “peak plasma concentration of metabolite at Cmax” value (clinical; [23])?
Answer: less than 1,000 pg/ml

Question: For `CN1C[C@H](C(=O)N[C@]2(C)O[C@@]3(O)[C@@H]4CCCN4C(=O)[C@H](Cc4ccccc4)N3C2=O)C=C2c3cccc4[nH]cc(c34)C[C@H]21` [Ergotamine, ergotamine tartrate], which bioavailability [1] is on record?
Answer: up to 92%

Question: What about the “onset of therapeutic efficacy” value ([2]; intranasal) of the same compound?
Answer: 45 min

Question: What about the “onset of therapeutic efficacy” value ([2]; oral or sublingual delivery) of the same compound?
Answer: 120 min

Question: Which results are given for `CN1C[C@H](C(=O)N[C@]2(C)O[C@@]3(O)[C@@H]4CCCN4C(=O)[C@H](Cc4ccccc4)N3C2=O)C[C@@H]2c3cccc4[nH]cc(c34)C[C@H]21` [DHE, dihydroergotamine mesylate]?
Answer: IC50 [3]: 3700 nM; IC50 [4]: 6.4 nM; receptor binding in D2 assays (D2 receptor; IV dose Cmax levels): 50%; binding in D2 assays (D2 receptor; after inhaled dosing (Cmax levels)): no binding affinity; binding activity at muscarinic (M) receptors (muscarinic (M) receptors): minimal binding activity; time to rapid pain relief [5]: ≤ 10 min; IC50 [6]: 0.7 nM; time to rapid plasma levels (clinical; all three methods of administration (FIG. 2)): ≤ 20 min; difference in AUC (clinical; between 1 mg IV and 0.88 mg inhaled): 1.2 fold; Cmax (clinical; inhaled or intranasal, 0.44 mg): 1.34 ng/mL; Cmax (clinical; inhaled or intranasal, 0.88 mg): 4.29 ng/mL; Cmax (clinical; iv, 1 mg): 53.2 ng/mL; IC50 [7]: 3100 nM; IC50 [8]: 1100 nM; IC50 [9]: 180 nM; IC50 [10]: 1.3 nM; IC50 [11]: 8.7 nM; IC50 [12]: 0.4 nM; binding at 5-HT3 receptors (5-HT3 receptors [13]): < 20%; binding at 5-HT1B (5-HT1B; Cmax following 0.88 mg inhaled dosing): 100%; binding at 5-HT1B (5-HT1B; Cmax following 1 mg intravenous dosing): 100%; apparent binding at 5-HT1D receptors (5-HT1D receptors): lower than IV; agonist or antagonist activity at 5-HT3 receptors (5-HT3 receptors [14]): lack of agonist or antagonist activity; IC50 [15]: 1.2 nM; agonism at 5-HT1B receptors (5-HT1B receptors): maintained across all concentrations; agonism at 5-HT2B receptors (5-HT2B receptors): agonism is absent; IC50 [16]: 6.6 nM; IC50 [17]: 60 nM; IC50 [18]: 0.5 nM; IC50 [19]: 8.3 nM; IC50 [20]: 271 nM; treated patients with nausea [21]: ~16%; side effects observed ([22]; 0.44 mg dose inhaled): no side effects were observed; Dizziness, subjects (%) ([22]; 0.88 mg DHE Inhaled, n = 12): 1 (8) (%); Feeling hot, subjects (%) ([22]; 0.88 mg DHE Inhaled, n = 12): 0 (%); Nausea, subjects (%) ([22]; 0.88 mg DHE Inhaled, n = 12): 1 (8) (%); Paresthesia, subjects (%) ([22]; 0.88 mg DHE Inhaled, n = 12): 0 (%); Vomiting, subjects (%) ([22]; 0.88 mg DHE Inhaled, n = 12): 0 (%); side effects observed ([22]; 0.88 mg dose inhaled): only minor side effects; Dizziness, number considered by investigator related to study drug (r) ([22]; 1 mg DHE IV, n = 16): 7; Dizziness, subjects (%) ([22]; 1 mg DHE IV, n = 16): 7 (44) (%); Feeling hot, number considered by investigator related to study drug (r) ([22]; 1 mg DHE IV, n = 16): 3; Feeling hot, subjects (%) ([22]; 1 mg DHE IV, n = 16): 3 (19) (%); Nausea, number considered by investigator related to study drug (r) ([22]; 1 mg DHE IV, n = 16): 10; Nausea, subjects (%) ([22]; 1 mg DHE IV, n = 16): 10 (63) (%); Paresthesia, number considered by investigator related to study drug (r) ([22]; 1 mg DHE IV, n = 16): 5; Paresthesia, subjects (%) ([22]; 1 mg DHE IV, n = 16): 5 (31) (%); Vomiting, number considered by investigator related to study drug (r) ([22]; 1 mg DHE IV, n = 16): 2; Vomiting, subjects (%) ([22]; 1 mg DHE IV, n = 16): 2 (13) (%); side effects observed ([22]; 1.0 mg IV DHE): significant side effects including nausea and emesis; incidence of nausea ([22]; inhaled): 8%; incidence of nausea ([22]; intravenous administration): 63%
